Literature values, collected in patent US8569304B2, “Active esters of N-substituted piperazine acetic acids, including isotopically enriched versions thereof” (DH Technologies Development Pte. Ltd., priority 2004, dated 2013).

Conditions: alcohol (leaving group) used to form the trifluoroacetate ester / active ester

- pKa: 7.80
SMILES: O=C1CCC(=O)N1O [NHS, N-Hydroxysuccinimide]
